Drawing on PubChem BioAssay AID330 (DTP/NCI, 2004), this text covers T/C for 26 compounds.

Structures are written as SMILES. Where “and” joins values, the source holds several entries; their conditions need not be identical. Equal values may be shown once. Inconclusive results and toxic doses are left out.

The subject of this experiment is P388 leukemia ip, CD2F1 mice, survival T/C. Description: NCI In Vivo Anticancer Drug Screen. Data for tumor model P388 Leukemia (intraperitoneal) in CD2F1 (CDF1) mice. The settings on record: endpoint: median survival time, higher = longer survival. An outline of the steps: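 Mice carrying the transplanted tumor received test compound or vehicle. Survival was recorded in each group, and the value is the treated-group measurement divided by that of the vehicle-treated control group.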

Setting [1] is: dose: 50.0 mg/kg/injection, schedule: Q01DX005 (ip), vehicle: saline with Tween-80.
[2] abbreviates: dose: 100.0 mg/kg/injection, schedule: Q01DX005 (ip), vehicle: saline with Tween-80.
[3] abbreviates: dose: 200.0 mg/kg/injection, schedule: Q01DX005 (ip), vehicle: saline with Tween-80.
[4] abbreviates: dose: 60.0 mg/kg/injection, schedule: Q01DX005 (ip), vehicle: saline.
Where [5] appears, read: dose: 120.0 mg/kg/injection, schedule: Q01DX005 (ip), vehicle: saline.
Where [6] appears, read: dose: 240.0 mg/kg/injection, schedule: Q01DX005 (ip), vehicle: saline.
Setting [7] is: dose: 25.0 mg/kg/injection, schedule: Q01DX009 (ip), vehicle: saline with Tween-80.
Setting [8] is: dose: 50.0 mg/kg/injection, schedule: Q01DX009 (ip), vehicle: saline with Tween-80.
Setting [9] is: dose: 100.0 mg/kg/injection, schedule: Q01DX009 (ip), vehicle: saline with Tween-80.
Where [10] appears, read: dose: 200.0 mg/kg/injection, schedule: Q01DX009 (ip), vehicle: saline with Tween-80.
Where [11] appears, read: dose: 50.0 mg/kg/injection, schedule: Q01DX005 (ip), vehicle: Klucel (hydroxypropylcellulose) (HPC).
Setting [12] is: dose: 100.0 mg/kg/injection, schedule: Q01DX005 (ip), vehicle: Klucel (hydroxypropylcellulose) (HPC).
The mark [13] stands for this setting: dose: 6.25 mg/kg/injection, schedule: Q01DX009 (ip), vehicle: saline.
Where [14] appears, read: dose: 12.5 mg/kg/injection, schedule: Q01DX009 (ip), vehicle: saline.
The mark [15] stands for this setting: dose: 25.0 mg/kg/injection, schedule: Q01DX009 (ip), vehicle: saline.
The mark [16] stands for this setting: dose: 50.0 mg/kg/injection, schedule: Q01DX009 (ip), vehicle: Klucel (hydroxypropylcellulose) (HPC).
The mark [17] stands for this setting: dose: 200.0 mg/kg/injection, schedule: Q01DX009 (ip), vehicle: Klucel (hydroxypropylcellulose) (HPC).
[18] abbreviates: dose: 100.0 mg/kg/injection, schedule: Q01DX009 (ip), vehicle: Klucel (hydroxypropylcellulose) (HPC).

As for `CCB1OC2C(COC(C)=O)OC(OC(C)=O)C2O1` (stereo not given), the T/C is 101 % of control under setting [1], 110 % of control under setting [2] and 113 % of control under setting [3].
With `C1=C(/N=NNc2ccccc2)CCCCCC/1`, the T/C (dose: 50.0 mg/kg/injection, schedule: Q01DX005 (ip), vehicle: Klucel + Tween-80) is 102 % of control; the T/C (dose: 100.0 mg/kg/injection, schedule: Q01DX005 (ip), vehicle: Klucel + Tween-80) was 100 % of control; the T/C (dose: 200.0 mg/kg/injection, schedule: Q01DX005 (ip), vehicle: Klucel + Tween-80) is 104 % of control.
Consider `Nc1nc(CC(N)C(=O)O)c[se]1` (stereo not given), for which the T/C reads like this: under setting [4], 97 % of control; under setting [5], 100 % of control; under setting [6], 100 % of control.
As for `CCOC(=O)c1ccccc1NC(=O)c1ccccc1`, the T/C under setting [7] is 93 % of control, the T/C under setting [8] was 94 % of control, the T/C under setting [9] is 103 % of control and the T/C under setting [10] was 111 % of control.
For the compound `CN=C(Nc1ccccn1)c1ccc(NC(=O)c2ccc(C(=O)Nc3ccc(C(=NC)Nc4ccccn4)cc3)cc2)cc1`, the T/C runs as follows: under setting [11], 107 % of control; under setting [12], 110 % of control.
As to `O=C1C(CBr)(CBr)CCC12CN=C(Br)C2` (stereo not given), the T/C runs as follows: under setting [1], 100 % of control; under setting [2], 98 % of control; under setting [3], 100 % of control.
For `COC1CCCCC1C(=O)C(C#N)C1CCCCC1C1CCCCC1` (stereo not given), the T/C is 100 % of control under setting [1], 98 % of control under setting [2] and 96 % of control under setting [3].
Turning to `N#Cc1ccccc1N1CCCC1=O`, the T/C (dose: 100.0 mg/kg/injection, schedule: Q04DX002 (ip), vehicle: saline) was 90 % of control; the T/C (dose: 200.0 mg/kg/injection, schedule: Q04DX002 (ip), vehicle: saline) is 102 % of control; the T/C (dose: 400.0 mg/kg/injection, schedule: Q04DX002 (ip), vehicle: saline) was 97 % of control.
As to `COc1ccc(NC(=S)NC2C(OC(C)=O)OC(COC(C)=O)C(OC(C)=O)C2OC(C)=O)cc1` (stereo not given), the T/C reads like this: under setting [1], 92 % of control; under setting [2], 92 % of control; under setting [3], 89 % of control.
As for `CCCCCCCCCCCCCCCC[N+]1(CC)CCCCCC1`, the T/C reads like this: (dose: 0.04 mg/kg/injection, schedule: Q01DX009 (ip), vehicle: saline) 110 % of control; (dose: 0.09 mg/kg/injection, schedule: Q01DX009 (ip), vehicle: saline) 103 % of control and 88 % of control; (dose: 0.19 mg/kg/injection, schedule: Q01DX009 (ip), vehicle: saline) 89 % of control.
Consider `CC(C)N[C@@H]1CCC[C@@H]2c3ccccc3[C@@]21O`, for which the T/C was 96 % of control under setting [4] and 95 % of control under setting [5].
In the case of `COc1ccc(N=C/C=C/c2ccccc2)cc1`, the T/C under setting [9] is 118 % of control; the T/C under setting [10] was 118 % of control; the T/C (dose: 400.0 mg/kg/injection, schedule: Q01DX009 (ip), vehicle: saline with Tween-80) is 118 % of control.
`O=C1CCCCCCCC(=O)Nc2ccc3nc4ccccc4c(c3c2)SCCCCCCCCCSc2c3ccccc3nc3ccc(cc23)N1`: the T/C (dose: 60.0 mg/kg/injection, schedule: Q01DX005 (ip), vehicle: saline with Tween-80) is 88 % of control; the T/C (dose: 120.0 mg/kg/injection, schedule: Q01DX005 (ip), vehicle: saline with Tween-80) was 99 % of control; the T/C (dose: 240.0 mg/kg/injection, schedule: Q01DX005 (ip), vehicle: saline with Tween-80) is 96 % of control.
On to `CO[C@@]12[C@H](COC(N)=O)C3=C(C(=O)C(C)=C(N)C3=O)N1C[C@H]1[C@@H]2N1C(=O)[C@@H]1N2C(=O)[C@@H](NC(=O)Cc3ccccc3)[C@H]2SC1(C)C`, for which the T/C runs as follows: under setting [13], 116 % of control; under setting [14], 155 % of control; under setting [15], 155 % of control; (dose: 50.0 mg/kg/injection, schedule: Q01DX009 (ip), vehicle: saline) 165 % of control.
Turning to `C[n+]1ccc(C(c2ccccc2)c2ccccc2)cc1`, the T/C under setting [13] was 104 % of control, the T/C under setting [14] is 112 % of control and the T/C under setting [15] is 100 % of control.
Take `O=C(c1ccccc1)c1ccccc1NC(=O)C(F)(F)F`: the T/C runs as follows: under setting [8], 100 % of control; under setting [9], 95 % of control; under setting [10], 96 % of control.
Turning to `CC1=CC(=C2C(=O)c3ccccc3C2=O)C=C(C)N1CC#CCN1CCCCC1`, the T/C under setting [11] is 108 % of control; the T/C under setting [12] is 98 % of control; the T/C (dose: 200.0 mg/kg/injection, schedule: Q01DX005 (ip), vehicle: Klucel (hydroxypropylcellulose) (HPC)) was 88 % of control; the T/C (dose: 240.0 mg/kg/injection, schedule: Q01DX005 (ip), vehicle: Klucel (hydroxypropylcellulose) (HPC)) is 90 % of control.
On to `CCc1c(-c2ccccc2)[nH]c2ccccc12`, for which the T/C runs as follows: under setting [7], 105 % of control; (dose: 50.0 mg/kg/injection, schedule: Q01DX009 (ip), vehicle: saline + alcohol) 116 % of control; under setting [8], 100 % of control; (dose: 100.0 mg/kg/injection, schedule: Q01DX009 (ip), vehicle: saline + alcohol) 112 % of control; under setting [9], 115 % of control; (dose: 200.0 mg/kg/injection, schedule: Q01DX009 (ip), vehicle: saline + alcohol) 103 % of control. Moreover, the T/C (dose: 400.0 mg/kg/injection, schedule: Q01DX009 (ip), vehicle: saline + alcohol) was 108 % of control.
`CC(=O)CC(c1ccccc1)C(Sc1ccccc1)(Sc1ccccc1)Sc1ccccc1` (stereo not given): the T/C reads like this: under setting [16], 101 % of control; under setting [17], 93 % of control.
`CC(Br)C(=O)c1ccc(OCc2ccccc2)cc1` (stereo not given): the T/C is, setting by setting: under setting [8], 110 % of control; under setting [9], 124 % of control; under setting [10], 121 % of control.
As to `CCC[C@@H](O)CC(=O)N[C@@H](CO)c1ccccc1`, the T/C under setting [4] is 96 % of control, the T/C under setting [5] is 95 % of control and the T/C under setting [6] was 96 % of control.
On to `C[n+]1ccc(C(=O)O)cc1` (tested in a mixture with another compound), for which the T/C is 104 % of control (dose: 100.0 mg/kg/injection, schedule: Q04DX003 (ip), vehicle: saline); 98 % of control (dose: 200.0 mg/kg/injection, schedule: Q04DX003 (ip), vehicle: saline); 98 % of control (dose: 400.0 mg/kg/injection, schedule: Q04DX003 (ip), vehicle: saline).
As for `ClCCN(CCCl)CC(Cl)COc1cccc2ccccc12` (stereo not given), the T/C (dose: 0.62 mg/kg/injection, schedule: Q01DX009 (ip), vehicle: saline) was 106 % of control and 108 % of control; the T/C (dose: 1.25 mg/kg/injection, schedule: Q01DX009 (ip), vehicle: saline) is 100 % of control and 108 % of control; the T/C (dose: 2.5 mg/kg/injection, schedule: Q01DX009 (ip), vehicle: saline) was 86 % of control and 97 % of control.
As for `CC1CC(=O)OC2CC(C)(C)CC(=O)C12` (stereo not given), the T/C was 100 % of control (dose: 100.0 mg/kg/injection, schedule: Q01DX009 (ip), vehicle: saline); 100 % of control (dose: 200.0 mg/kg/injection, schedule: Q01DX009 (ip), vehicle: saline); 109 % of control (dose: 400.0 mg/kg/injection, schedule: Q01DX009 (ip), vehicle: saline).
For `Cc1csc(N=Nc2ccc(N(C)C)cc2)[n+]1[O-]`, the T/C is, setting by setting: under setting [16], 103 % of control; under setting [18], 109 % of control; under setting [17], 108 % of control.
As for `CN(C)c1ccc2c(Cl)cc(Cl)nc2c1`, the T/C (dose: 12.5 mg/kg/injection, schedule: Q01DX009 (ip), vehicle: Klucel (hydroxypropylcellulose) (HPC)) is 109 % of control; the T/C (dose: 25.0 mg/kg/injection, schedule: Q01DX009 (ip), vehicle: Klucel (hydroxypropylcellulose) (HPC)) was 109 % of control; the T/C under setting [16] was 107 % of control; the T/C under setting [18] is 106 % of control; the T/C under setting [17] was 103 % of control; the T/C (dose: 400.0 mg/kg/injection, schedule: Q01DX009 (ip), vehicle: Klucel (hydroxypropylcellulose) (HPC)) is 104 % of control.
